Patent US5013734A, “Novel esters of phenylalkanoic acid” (Ono Pharmaceutical Co., Ltd., priority 1989, dated 1991)
Structures can show the parent of a compound that is named as a salt.

How the values were obtained:
β-receptor (trachea) = molecular target: T1, β-receptor (trachea) (Cavia porcellus, UniProt Q8K4Z4); test: Cardio selectivity of β-receptor blocking effect in vitro: isolated trachea, isoproterenol concentration-response; assay type: cell-based, guinea pig; settings: against isoproterenol (10^-10 M to 10^-4 M), read-out: pA2 value trachea (converted)
T1 construct: Trachea was cut into zigzag strip and connected to a force transducer; from tissue; host or cells: isolated guinea pig tracheal zigzag strip
Excerpt: Concentration-response curves to isoproterenol were then obtained.

[1] = acute toxicity (LD50), intravenous, mice; settings: mouse, in vivo; intravenous administration in mice
Excerpt: On the other hand, it was confirmed that the toxicity of the compounds of the present invention was very low. […] Therefore, the compounds of the present invention may be considered to be sufficiently safe and suitable for pharmaceutical use.

β1 -receptor = test: β-blocking activity in vivo: inhibition of isoproterenol-induced tachycardia in anesthetized dogs; settings: for Inhibitory effect after administration of compounds of the present invention (inhibition of isoproterenol-induced tachycardia), 10 min: 10 min (during infusion); for Inhibitory effect after administration of compounds of the present invention (inhibition of isoproterenol-induced tachycardia), 10 min / Inhibitory effect after administration of compounds of the present invention (inhibition of isoproterenol-induced tachycardia), 20 min / Inhibitory effect after administration of compounds of the present invention (inhibition of isoproterenol-induced tachycardia), 30 min / Inhibitory effect after administration of compounds of the present invention (inhibition of isoproterenol-induced tachycardia), 35 min / Inhibitory effect after administration of compounds of the present invention (inhibition of isoproterenol-induced tachycardia), 40 min / Inhibitory effect after administration of compounds of the present invention (inhibition of isoproterenol-induced tachycardia), 50 min / Inhibitory effect after administration of compounds of the present invention (inhibition of isoproterenol-induced tachycardia), 60 min: 10 μg/kg/min iv infusion for 30 minutes; for Inhibitory effect after administration of compounds of the present invention (inhibition of isoproterenol-induced tachycardia), 20 min: 20 min (during infusion); for Inhibitory effect after administration of compounds of the present invention (inhibition of isoproterenol-induced tachycardia), 30 min: 30 min (end of infusion); for Inhibitory effect after administration of compounds of the present invention (inhibition of isoproterenol-induced tachycardia), 35 min: 35 min (after infusion); for Inhibitory effect after administration of compounds of the present invention (inhibition of isoproterenol-induced tachycardia), 40 min: 40 min (after infusion); for Inhibitory effect after administration of compounds of the present invention (inhibition of isoproterenol-induced tachycardia), 50 min: 50 min (after infusion); for Inhibitory effect after administration of compounds of the present invention (inhibition of isoproterenol-induced tachycardia), 60 min: 60 min (after infusion); for Duration of action: time required to decrease the inhibition percent 30 minutes after administration to half, 10 μg/kg/min iv infusion
Procedure: β-blocking activity of the compounds of the present invention in vivo
Dogs were anesthetized with sodium barbital (300 mg/kg, ip). A femoral artery and both femoral veins were cannulated. Blood pressure was measured with a pressure transducer. Heart rate was measured from the blood pressure signal using a cardiotachometer. The β-blocking activity was assessed by the inhibition of isoproterenol-induced tachycardia. Isoproterenol was administered intravenously (0.1~0.3 μg/kg) at 10 minutes intervals. When a regular tachycardia induced by isoproterenol was given, the compound of the present invention was administered (10 μg/kg/min, iv infusion) for 30 minutes. Isoproterenol was given repeatedly during and following infusion of a test compound. The inhibitory effects of the compounds of the present invention on tachycardia were calculated.
Inhibition (%)=((ΔRO-ΔRa)/ΔRO)×100
ΔRO: the increment of heart rate by isoproterenol before infusion of the compound of the present invention
ΔRa: the increment of heart rate by isoproterenol during and after infusion of the compound of the present invention

T1 sequence (Q8K4Z4 whole entry): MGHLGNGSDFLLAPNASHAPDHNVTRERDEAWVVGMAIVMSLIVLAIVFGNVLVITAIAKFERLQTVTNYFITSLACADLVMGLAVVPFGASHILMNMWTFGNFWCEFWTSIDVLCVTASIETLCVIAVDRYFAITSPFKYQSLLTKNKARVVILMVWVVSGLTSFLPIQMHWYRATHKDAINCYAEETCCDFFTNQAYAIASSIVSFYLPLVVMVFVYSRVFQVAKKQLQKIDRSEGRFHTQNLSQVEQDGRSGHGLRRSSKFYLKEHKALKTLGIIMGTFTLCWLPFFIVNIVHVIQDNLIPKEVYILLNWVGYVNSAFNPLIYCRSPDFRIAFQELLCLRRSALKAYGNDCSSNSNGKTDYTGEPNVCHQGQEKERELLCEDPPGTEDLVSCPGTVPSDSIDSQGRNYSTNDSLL

CC1(C)OC[C@@H](COC(=O)CCc2ccc(OC[C@@H](O)CNCCNC(=O)N3CCOCC3)cc2)O1 [2 (b), (2,2-dimethyl-1,3-dioxolan-4S-yl)methyl 3-[4-[2S-hydroxy-3-(2-morpholinocarbonylaminoethyl)aminopropoxy]phenyl]propionate 1/2 oxalate]
Kb (β-receptor (trachea)): 66.1 µM | LD50 [1]: 290 mg/kg

O=C(CCc1ccc(OCC(O)CNCCNC(=O)N2CCOCC2)cc1)OCC1COC2(CCCC2)O1 (stereo not shown) [3 (c), (1,4-dioxaspiro[4,4]-nonan-2-yl)methyl 3-[4-[2-hydroxy-3-(2-morpholinocarbonylaminoethyl)aminopropoxy]phenyl]-ropionate 1/2 oxalate]
Inhibitory effect after administration of compounds of the present invention (inhibition of isoproterenol-induced tachycardia), 10 min (β1 -receptor): 38.3% | Inhibitory effect after administration of compounds of the present invention (inhibition of isoproterenol-induced tachycardia), 20 min (β1 -receptor): 46.9% | Inhibitory effect after administration of compounds of the present invention (inhibition of isoproterenol-induced tachycardia), 30 min (β1 -receptor): 40.4% | Inhibitory effect after administration of compounds of the present invention (inhibition of isoproterenol-induced tachycardia), 35 min (β1 -receptor): 37.0% | Inhibitory effect after administration of compounds of the present invention (inhibition of isoproterenol-induced tachycardia), 40 min (β1 -receptor): 20.1% | Inhibitory effect after administration of compounds of the present invention (inhibition of isoproterenol-induced tachycardia), 50 min (β1 -receptor): -2.6% | Inhibitory effect after administration of compounds of the present invention (inhibition of isoproterenol-induced tachycardia), 60 min (β1 -receptor): -1.3% | Duration of action (β1 -receptor): 10 min

CC1(C)OCC(COC(=O)CCc2ccc(OC[C@@H](O)CNCCNC(=O)N3CCOCC3)c(F)c2)O1 (stereo partly drawn) [3 (e), (2,2-dimethyl-1,3-dioxolan-4-yl)methyl 3-[3-fluoro-4-[2S-hydroxy-3-(2-morpholinocarbonylaminoethyl)aminopropoxy]phenyl]propionate 1/2 oxalate]
Inhibitory effect after administration of compounds of the present invention (inhibition of isoproterenol-induced tachycardia), 10 min (β1 -receptor): 49.6% | Inhibitory effect after administration of compounds of the present invention (inhibition of isoproterenol-induced tachycardia), 20 min (β1 -receptor): 58.5% | Inhibitory effect after administration of compounds of the present invention (inhibition of isoproterenol-induced tachycardia), 30 min (β1 -receptor): 63.8% | Inhibitory effect after administration of compounds of the present invention (inhibition of isoproterenol-induced tachycardia), 35 min (β1 -receptor): 45.4% | Inhibitory effect after administration of compounds of the present invention (inhibition of isoproterenol-induced tachycardia), 40 min (β1 -receptor): 32.7% | Inhibitory effect after administration of compounds of the present invention (inhibition of isoproterenol-induced tachycardia), 50 min (β1 -receptor): 10.8% | Inhibitory effect after administration of compounds of the present invention (inhibition of isoproterenol-induced tachycardia), 60 min (β1 -receptor): -3.3% | Duration of action (β1 -receptor): 10 min

CC1(C)OCC(COC(=O)CCc2ccc(OC[C@@H](O)CNCCNC(=O)N3CCOCC3)c(C#N)c2)O1 (stereo partly drawn) [3 (j), (2,2-dimethyl-1,3-dioxolan-4-yl)methyl 3-[3-cyano-4-[2S-hydroxy-3-(2-morpholinocarbonylaminoethyl)aminopropoxy]phenyl]propionate 1/2 oxalate]
Inhibitory effect after administration of compounds of the present invention (inhibition of isoproterenol-induced tachycardia), 10 min (β1 -receptor): 75.7% | Inhibitory effect after administration of compounds of the present invention (inhibition of isoproterenol-induced tachycardia), 20 min (β1 -receptor): 69.0% | Inhibitory effect after administration of compounds of the present invention (inhibition of isoproterenol-induced tachycardia), 30 min (β1 -receptor): 68.7% | Inhibitory effect after administration of compounds of the present invention (inhibition of isoproterenol-induced tachycardia), 35 min (β1 -receptor): 48.9% | Inhibitory effect after administration of compounds of the present invention (inhibition of isoproterenol-induced tachycardia), 40 min (β1 -receptor): 38.3% | Inhibitory effect after administration of compounds of the present invention (inhibition of isoproterenol-induced tachycardia), 50 min (β1 -receptor): 19.3% | Inhibitory effect after administration of compounds of the present invention (inhibition of isoproterenol-induced tachycardia), 60 min (β1 -receptor): 13.6% | Duration of action (β1 -receptor): 12 min

CN1CCN(C(=O)NCCNC[C@H](O)COc2ccc(CCC(=O)OCC3COC(C)(C)O3)cc2)CC1 (stereo partly drawn) [3 (l), (2,2-dimethyl-1,3-dioxolan-4-yl)methyl 3-[4-[2S-hydroxy-3-[2-(4-methylpiperazin-1-yl)carbonylaminoethyl]aminopropoxy]phenyl]propionate 1/2 oxalate]
Inhibitory effect after administration of compounds of the present invention (inhibition of isoproterenol-induced tachycardia), 10 min (β1 -receptor): 60.2% | Inhibitory effect after administration of compounds of the present invention (inhibition of isoproterenol-induced tachycardia), 20 min (β1 -receptor): 58.6% | Inhibitory effect after administration of compounds of the present invention (inhibition of isoproterenol-induced tachycardia), 30 min (β1 -receptor): 59.8% | Inhibitory effect after administration of compounds of the present invention (inhibition of isoproterenol-induced tachycardia), 35 min (β1 -receptor): 55.6% | Inhibitory effect after administration of compounds of the present invention (inhibition of isoproterenol-induced tachycardia), 40 min (β1 -receptor): 41.8% | Inhibitory effect after administration of compounds of the present invention (inhibition of isoproterenol-induced tachycardia), 50 min (β1 -receptor): 19.6% | Inhibitory effect after administration of compounds of the present invention (inhibition of isoproterenol-induced tachycardia), 60 min (β1 -receptor): 16.3% | Duration of action (β1 -receptor): 15 min
